The results in this text go back to patent US11613546B2, “Substituted pyridotriazine compounds and uses thereof” (Gilead Sciences, Inc., priority 2021, dated 2023).

Format in all cases: cell-based
One data set concerns pLai RLuc reporter virus. Put plainly: HIV MT-4 serum shift antiviral reporter assay. The settings on record: Human immunodeficiency virus 1, 72 h. The protocol: To quantify the amount of protein binding to human serum, compounds were serially diluted (1:3) in DMSO and acoustically transferred onto 384-well assay plates via a Labcyte ECHO robot. Each plate contained up to 8 test compounds, including negative and positive controls, (DMSO, 5 μM AZT respectively). Assay plates were prepared in duplicate, and tested in either CCM (cell culture media) or HS/CCM (human serum/cell culture media). MT-4 cells were first pre-infected with pLai RLuc reporter virus for 2 h at 37° C., then further diluted in either CCM (RPMI media, 10% FBS, 1% P/S) or HS/CCM (RPMI media, 10% FBS, 50% HS, 1% P/S), and subsequently added to each plate using a Biotek Micro Flow dispenser. After a 72-h incubation in a humidified and temperature controlled incubator (37° C.), Renilla Glo (Promega) was added to all assay plates and chemiluminescence read using an Envision plate-reader. EC50 values were defined as the compound concentration that causes a 50% decrease in luminescence signal, and were calculated using a sigmoidal dose-response model to generate curve fits. To determine the amount of protein binding, EC50 fold shifts (or EC50 shifts) were calculated by dividing EC50 (HS/CCM)/EC50 (CCM).

Data set [1] can be described thus: Cytotoxicity assay in MT-4 cells. The settings on record: human, uninfected MT-4 cells, 5 days, Cell Titer Glo; read-out: CC50. On the procedure: (§1) Compounds were tested in a high-throughput 384-well assay format for their ability to inhibit the replication of HIV-1 (IIIB) in MT-4 cells. Compounds were serially diluted (1:3) in DMSO on 384-well polypropylene plates and further diluted 200-fold into complete RPMI media (10% FBS, 1% P/S) using the Biotek Micro Flow and Labcyte ECHO acoustic dispenser. Each plate contained up to 8 test compounds, with negative (No Drug Control) and 5 μM AZT positive controls. MT-4 cells were pre-infected with 10 μL of either RPMI (mock-infected) or a fresh 1:250 dilution of HIV-1 IIIB concentrated virus stock. Infected and uninfected MT-4 cells were further diluted in complete RPMI media and added to each plate using a Micro Flow dispenser. After 5 days incubation in a humidified and temperature controlled incubator (37° C.), Cell Titer Glo (Promega) was added to the assay plates and chemiluminescence read using an Envision plate-reader. EC50 values were defined as the compound concentration that causes a 50% decrease in luminescence signal, and were calculated using a sigmoidal dose-response model to generate curve fits. Cytotoxicity Assay in MT-4 Cells Assays were performed as above except uninfected MT-4 cells were added to each well containing test compound. In addition, 10 μM puromycin was added to the last column of each assay plate to assess a base level of cytotoxicity.

In another data set the test system is HIV-1 (IIIB). The experiment in a line: Antiviral assay in MT-4 cells. The settings on record: Human immunodeficiency virus 1, IIIB, MT4, 120 h, HIV-1 IIIB infected MT-4 cells, 5 days, Cell Titer Glo; read-out: MT4 EC50. The protocol:
Antiviral Assay in MT-4 Cells
as §1, with “fits.” for “fits. Cytotoxicity Assay in MT-4 Cells Assays were performed as above except uninfected MT-4 cells were added to each well containing test compound. In addition, 10 μM puromycin was added to the last column of each assay plate to assess a base level of cytotoxicity.”

[2] abbreviates: read-out: RLUC 50% HS (nM), HS/CCM: 50% human serum, 72 h, Renilla Glo.
The mark [3] stands for this setting: read-out: RLUC CCM (nM), cell culture media (RPMI, 10% FBS), 72 h, Renilla Glo.

Each structure is given as a SMILES string. Read-outs that look alike come from different tables or passages of the source.

`CO[C@H]1C[C@@H](C)N2CN(C[C@H]1OC)C(=O)c1c(O)c(=O)c(C(=O)NCc3ccc(F)cc3F)cn12` [Example C39, (1S,2R,4S,5R)—N-(2,4-difluorobenzyl)-9-hydroxy-4,5-dimethoxy-2-methyl-8,10-dioxo-3,4,5,6,8,10-hexahydro-2H-1,7-methanopyrido[1,2-b][1,2,5]triazecine-11-carboxamide]: the EC50 was determined as 4.7 nM with pLai RLuc reporter virus (setting [2]), 0.93 nM in the data set on pLai RLuc reporter virus (setting [3]) and 3.5 nM with HIV-1 (IIIB). Also, in data set [1], the CC50 (as a rule, the concentration that lowers cell viability or growth by half) at 5 days worked out at 20300 nM.

Take `C[C@H]1CCCCN2CN1n1cc(C(=O)NCc3ccc(F)cc3F)c(=O)c(O)c1C2=O` [Example C42, (1R,2S)—N-(2,4-difluorobenzyl)-9-hydroxy-2-methyl-8,10-dioxo-3,4,5,6,8,10-hexahydro-2H-1,7-methanopyrido[1,2-b][1,2,5]triazecine-11-carboxamide]: the EC50 turned out to be 1880 nM in the data set with pLai RLuc reporter virus (setting [2]), 2.47 nM in the data set on pLai RLuc reporter virus (setting [3]) and 2.2 nM in the data set with HIV-1 (IIIB). Also, the CC50 at 5 days in data set [1] is 7030 nM.

As for `CO[C@@H]1CC[C@H](C)N2CN1n1cc(C(=O)NCc3c(F)cc(F)cc3F)c(=O)c(O)c1C2=O` [Example C47, (1R,2R,5S)-8-hydroxy-2-methoxy-5-methyl-7,9-dioxo-N-(2,4,6-trifluorobenzyl)-2,3,4,5,7,9-hexahydro-1,6-methanopyrido[1,2-b][1,2,5]triazonine-10-carboxamide], the results for the EC50 with pLai RLuc reporter virus (setting [2]), in the data set with pLai RLuc reporter virus (setting [3]) and with HIV-1 (IIIB) were 196 nM, 1.71 nM and 1.8 nM, respectively. Besides, in data set [1], the CC50 at 5 days was found to be 11500 nM.

Turning to `C[C@@H]1C=C[C@H](CF)N2CN1n1cc(C(=O)NCc3c(F)cc(F)cc3F)c(=O)c(O)c1C2=O` [Example C50, (1S,2R,5R)-5-(fluoromethyl)-8-hydroxy-2-methyl-7,9-dioxo-N-(2,4,6-trifluorobenzyl)-2,5,7,9-tetrahydro-1,6-methanopyrido[1,2-b][1,2,5]triazonine-10-carboxamide], the EC50 worked out at 850 nM with pLai RLuc reporter virus (setting [2]), 0.37 nM in the data set on pLai RLuc reporter virus (setting [3]) and 0.85 nM in the data set on HIV-1 (IIIB). The half-maximal cytotoxic concentration (CC50) at 5 days in data set [1] was determined as 13300 nM.

As for `C[C@@H]1C[C@H](F)[C@H](C)N2CN1n1cc(C(=O)NCc3ccc(F)cc3F)c(=O)c(O)c1C2=O` [Example C52, (1S,2R,4S,5S)—N-(2,4-difluorobenzyl)-4-fluoro-8-hydroxy-2,5-dimethyl-7,9-dioxo-2,3,4,5,7,9-hexahydro-1,6-methanopyrido[1,2-b][1,2,5]triazonine-10-carboxamide], the EC50 in the data set with pLai RLuc reporter virus (setting [2]) was 473 nM; in the data set with pLai RLuc reporter virus (setting [3]) it was 0.77 nM; with HIV-1 (IIIB) it was 1.5 nM. Moreover, in data set [1], the CC50 at 5 days is 9220 nM.

As to `C[C@@H]1C[C@@H](F)[C@H](C)N2CN1n1cc(C(=O)NCc3ccc(F)cc3F)c(=O)c(O)c1C2=O` [Example C53, (1S,2R,4R,5S)—N-(2,4-difluorobenzyl)-4-fluoro-8-hydroxy-2,5-dimethyl-7,9-dioxo-2,3,4,5,7,9-hexahydro-1,6-methanopyrido[1,2-b][1,2,5]triazonine-10-carboxamide], the EC50 turned out to be 350 nM with pLai RLuc reporter virus (setting [2]), 0.55 nM with pLai RLuc reporter virus (setting [3]) and 1.3 nM in the data set with HIV-1 (IIIB). Besides, in data set [1], the CC50 at 5 days is 9010 nM.

Take `C[C@@H]1CC(F)(F)[C@H](C)N2CN1n1cc(C(=O)NCc3ccc(F)cc3F)c(=O)c(O)c1C2=O` [Example C54, (1S,2R,5S)—N-(2,4-difluorobenzyl)-4,4-difluoro-8-hydroxy-2,5-dimethyl-7,9-dioxo-2,3,4,5,7,9-hexahydro-1,6-methanopyrido[1,2-b][1,2,5]triazonine-10-carboxamide]: the EC50 in the data set on pLai RLuc reporter virus (setting [2]) turned out to be 72.4 nM; with pLai RLuc reporter virus (setting [3]), 0.63 nM; with HIV-1 (IIIB), 2.3 nM. Besides, in data set [1], the CC50 at 5 days worked out at 47400 nM.

As for `C[C@@H]1C=C(F)[C@H](C)N2CN1n1cc(C(=O)NCc3c(F)cc(F)cc3F)c(=O)c(O)c1C2=O` [Example C55, (1S,2R,5S)-4-fluoro-8-hydroxy-2,5-dimethyl-7,9-dioxo-N-(2,4,6-trifluorobenzyl)-2,5,7,9-tetrahydro-1,6-methanopyrido[1,2-b][1,2,5]triazonine-10-carboxamide], the EC50 in the data set on pLai RLuc reporter virus (setting [2]) is 515 nM; with pLai RLuc reporter virus (setting [3]) it was 0.71 nM; in the data set on HIV-1 (IIIB), 1.3 nM. For the same molecule, the CC50 at 5 days in data set [1] was found to be 29500 nM.
